Test results published in US20050086708A1, “Animal models of retinal tumorigenesis” (priority 2003, published 2005).

Legend:
[1] = system: Y79 retinoblastoma xenograft; experiment: Orthotopic retinoblastoma xenograft in eyes of newborn rats; format: in vivo, rat
From the text: For some experiments, the retinoblastoma cells were labeled with a GFP transgene to unambiguously establish tumor boundaries.
To establish a baseline prior to chemotherapy treatment in our retinoblastoma xenograft model, we analyzed cell number, survival, proliferation, apoptosis, and gene expression 2 weeks after engraftment. One hour before analysis, the rats received an injection of BrdU to label the cells in the S-phase of the cell cycle, a measure of the fraction of dividing cells. The engrafted cells were microdissected from the normal tissue and dissociated; the total cell number was then scored. Calcein and ethidium bromide were used to measure metabolically active cells and dead cells, respectively. […] The fraction of dividing cells was estimated by staining with an anti-BrdU antibody and scoring the fraction of immunopositive cells. […] To estimate the proportion of cells that had initiated apoptosis, we performed a TUNEL assay.
After one course of treatment, the transplanted retinoblastoma cells were analyzed for viability and proliferation as described above.

Weril cells = experiment: Response of cultured retinoblastoma cells to drugs, proportion of viable cells (Weri1); format: cell-based, human; settings: 8 hours exposure, assayed 3 days later
From the text: (§1) Cell Culture. Y79 and Weri1 cells were obtained from the American Type Culture Collection (Manassas, Va.) and maintained in culture in RPMI medium with 10% FCS (McFall, R. C. et al., “Characterization of a new continuous cell line derived from a human retinoblastoma”, Cancer Res 37: 1003-10 (1977)). Stable lines expressing GFP were generated by transfecting pTET-1 (M.A.D. unpublished) into Y79 and Weril cells by using TransFast (Promega, Madison, Wis.); clones were isolated in the presence of hygromycin. To measure live cells, 0.5 ug/ml calcein was used; to measure dead cells, 4 uM ethidium bromide was used.
(§2) Viable Cell Calculation Following Drug Treatment. […] The proportion of cells that had initiated apoptosis (T) was determined by a TUNEL assay.
(§3) Response of Cultured Retinoblastoma Cells to Chemotherapeutic Drugs. […] For all of the cell culture studies, retinoblastoma cells were exposed to drugs at a cell density corresponding to their optimal proliferation and cell survival. The cell number, proportion of metabolically active cells, and proportion of apoptotic cells were combined to generate the proportion of viable cells (see Materials and Methods for calculations). The proportion of dividing cells was estimated by labeling the cultures with BrdU for 1 hour. Initially, cells were exposed to TPT, CBP, or VCR for 8 hours at concentrations ranging from 1 nM to 200 uM, and the cultures were assayed 3 days later.

retinoblastoma [2] = settings: subconjunctival administration; cited from earlier work
[3] = system: Y79 and Weril retinoblastoma cells; experiment: Combination, time course, FACS and DNA-content studies in cultured retinoblastoma cells; format: cell-based, human
From the text: as §1
Immunolabeling and TUNEL and BrdU Assays. Y79 and Weri1 retinoblastoma cells were immunolabeled as described previously for dissociated mouse retinae (Dyer, M. A. & Cepko, C. L., “p27Kip1 and p57Kip2 regulate proliferation in distinct retinal progenitor cell population”, J. of Neurosci 21: 4259-71 (2001); Zhu, C. C. et al., “Six2-mediated auto repression and eye development requires its interaction with members of the Groucho-related family of co-repressors”, Development 129: 2835-49 (2002); Dyer, M. A. & Cepko, C. L., “p57(Kip2) regulates progenitor cell proliferationand amacrine intemeuron development in the mouse retina”, Development 127: 3593-605 (2000)). For in vivo studies, BrdU (100 mg/kg body weight) was administered via tail vein injection. BrdU and TUNEL assays were carried out as described previously (Dyer, M. A. et. al., id, Zhu, C. C. et. al., id; Dyer, M. A. et. al., id). Detailed protocols are available at http://www.stjude.org/dyer.
Fluorescent-Activated Cell Sorting. DNA content was analyzed by dissociating tumors with trypsin (Dyer, M. A. et. al., id; Zhu, C. C. et. al., id; Dyer, M. A. et. al., id) and sorting cells by fluorescent-activated cell sorting (FACS). Cells were washed with PBS, and resuspended in a solution containing 0.05 mg/ml propidium iodide, 0.1% sodium citrate and, 0.1% Triton-X100. Samples were then treated with RNase, filtered through a 40-um nylon mesh, and analyzed on a FACScan (Beckton-Dickson, Franklin Lakes, N.J.).
as §2, §3
Following treatment, RNA was isolated and microarray hybridizations were carried out using the human H1 cDNA microarray (see Materials and Methods).
In these preliminary studies, we included an 8-h drug exposure, because that is the maximum period of drug exposure for children receiving chemotherapy. However, the time that tumor cells are exposed in situ is probably considerably shorter, so we performed a time course experiment to determine the minimum duration of exposure required for the full effect on retinoblastoma cell survival and proliferation.

in vivo = settings: for Kp: rat, in vivo, iv
Description: Pharmacology. Two-week-old rats were treated with TPT (Hycamtin; GlaxoSmithKline, Research Triangle Park, N.C.) at a maximum tolerated dose (MTD) of 2 mg/kg body weight, CBP (Paraplatin; Bristol-Myers Squibb, New York, N.Y.) at an MTD of 70 mg/kg, and VCR (Mayne Pharma (USA Inc., Paramus, N.J.) at an MTD of 0.5 mg/kg; all agents were administered via tail vein injection. TPT was measured by HPLC UV absorption as described (Thompson, J. et. al., id). Atomic absorption spectrometry of ultrafiltered and nonfiltered samples was used to measure platinum levels (Simpson, A. E. et al., “Transscleral diffusion of carboplatin: an in vitro and in vivo study”, Arch Ophthalmol 120: 1069-74 (2002)). Liquid scintillation was used to measure levels of [H^3]-VCR (70-90 Ci/mmol; PerkinElmer, Wellesley, Mass.). Mice received TPT, CBP, and VCR at a dose and schedule similar to that used to treat children with retinoblastoma (Schouten-Van Meeteren, A. Y. et al., “Overview: chemotherapy for retinoblastoma: an expanding area of clinical research”, Med Pediatr Oncol 38: 428-38 (2002)) or other brain tumors.
To measure retinal and vitreal penetration of TPT, CBP, and VCR, we injected each drug intravenously into 2-wk-old rats; this age corresponded to the stage of treatment in our xenograft model. Drug levels were measured in the vitreous, retina, and plasma at 3 min, 30 min, 1.5 h, 4 h, and 6 h after injection.

Y79 cells = experiment: Response of cultured retinoblastoma cells to drugs, proportion of viable cells (Y79); format: cell-based, human; settings: 8 hours exposure, assayed 3 days later
From the text: as §1, §2, §3

Y79 and Weril cells = experiment: Microarray gene expression response of retinoblastoma cells to drugs; format: cell-based, human; settings: microarray analysis after treatment
Description: Microarray Hybridization. The H1 human cDNA microarray was printed at the Hartwell Center for Bioinformatics & Biotechnology at St. Jude Children's Research Hospital. The gene list is available at http://www.ncbi.nlm.nih.gov/geo/ (GEO Accession: GLP345). RNA was isolated from approximately 20×10^6 cells in triplicate for each treatment using Trizol (Invitrogen, Carlsbad, Calif.), and 10 ug total RNA underwent one round of linear amplification using the RiboAmp System (Arcturus Applied Genomics, Carlsbad, Calif.) to yield 100 ug of RNA. The RNA was indirectly labeled using aa-dUTP and conjugated with Cy3 and Cy5. Data were then filtered (see http://www.ncbi.nlm.nih.gov/geo/; GLP345 for details), and cluster analysis was performed.
Following treatment, RNA was isolated and microarray hybridizations were carried out using the human H1 cDNA microarray (see Materials and Methods). […] Using the LD50 of TPT, we tested the combination of TPT and CBP and that of TPT and VCR. […] This effect was additive.
Microarray analysis provided even more information about the response of retinoblastoma cells to chemotherapeutic drugs. […] VCR treatment also altered the expression of a different cohort of genes in comparison to TPT treatment. […]

retinoblastoma [4] = settings: low-dose, frequent versus infrequent, high-dose administration; cited from earlier work
[5] = system: primary human retinoblastoma tumors; experiment: Enlarged nuclei in tumors removed from patients following VCR treatment; format: in vivo; settings: human tumors treated with VCR; control primary tumors 4%±1%
From the text: We were surprised that VCR was not effective at halting retinoblastoma growth in the orthotopic xenograft model because VCR is often combined with other chemotherapeutic agents in the treatment of retinoblastoma in children. It was possible that there was a minor effect of VCR treatment that was masked in our system by the active proliferation and expansion of the xenograft. One of the hallmarks of VCR exposure is a nucleus with twice the genomic DNA content, because VCR blocks cytokinesis without halting cell cycle progression. To test if there was any VCR-mediated block of mitosis, we scored the proportion of large cells with twice the genomic DNA content in cultured cells, xenografts, and tumors removed from patients following VCR treatment. […] The proportion of enlarged nuclei in xenografts and primary human tumors following VCR treatment was similar to control xenografts (3%±2%) and primary tumors (4%±1%), respectively.

[6] = 2-wk-old rats, intravenous, 3 min to 6 h

| Structure (SMILES) | cell cycle arrest phase [3] | exposure sufficient to achieve the maximum reduction in cell survival and proliferation ([3]; time course experiment) [min] | LD50 (Y79 cells) [nM] | p53 pathway activation (Y79 and Weril cells) | LD50 (Weril cells; Weril cells) [nM] | Kp (in vivo; AUC retina/plasma ratio) | Kp (in vivo; AUC vitreous/plasma ratio) | also measured |
| --- | --- | --- | --- | --- | --- | --- | --- | --- |
| N.N.O=C([O-])C1(C(=O)[O-])CCC1.[Pt+2] [CBP, carboplatin] | arrested in either the G1 or G2 phase | 15 | 4000 | not activated | – | – | – | cell number/eye ([1]; 2-wk-old rats, after one course of treatment, untreated 2.4±0.6×10^6): 0.79±0.29×10^6 cell number/eye; LD50 (Weril cells; Weri1 cells): 5000 nM; effect on tumor size (retinoblastoma [2]): effective at reducing tumor size; AUC retina/plasma ratio (in vivo; [6]): 0.03; AUC vitreous/plasma ratio (in vivo; [6]): 0.59 |
| CC[C@@]1(O)C(=O)OCc2c1cc1n(c2=O)Cc2cc3c(CN(C)C)c(O)ccc3nc2-1 [TPT, topotecan] | G2 arrest | 15 | 30 | activated | 19 | 0.7 | 0.38 | proportion of cells arrested in G2 phase (FACS) ([3]; exposed for 10 min): 36%; proportion of cells arrested in G2 phase (FACS) ([3]; exposed for 8 h): 39%; effect on tumor burden (retinoblastoma [4]): more effectively reduced the tumor burden |
| CC[C@]1(O)C[C@H]2CN(CCc3c([nH]c4ccccc34)[C@@](C(=O)OC)(c3cc4c(cc3OC)N(C=O)[C@H]3[C@@](O)(C(=O)OC)[C@H](OC(C)=O)[C@]5(CC)C=CCN6CC[C@]43[C@@H]65)C2)C1 [VCR, vincristine] | – | – | 5 | – | 3 | 1 | 1.1 | effect on retinoblastoma cell survival ([1]; short-term assay, one course of treatment): little effect; proportion of enlarged nuclei (cell cycle progression without cytokinesis) ([1]; xenografts treated with VCR, control xenografts 3%±2%): 2%±1%; proportion of enlarged nuclei (cell cycle progression without cytokinesis) [5]: 5%±1.5%; exposure time required to kill retinoblastoma cells in culture [3]: 4 h; cells with twice their normal DNA content ([3]; cultured cells, 5 nM for 8 h): Approximately 98%; exposure time of maximum decrease in viability ([3]; time course experiment): 4 h |
